Legend:
[1] = tested on: CCRF-CEM ARAC-8C cells (Gem-resistant human acute lymphoblastic leukemia); experiment: Therapeutic effect under ionizing radiation: cell viability by trypan blue cell count; type: cell-based
Protocol: Just before the experiment, the cells (CCRF-CEM ARAC-8C) were dispersed in PBS and transferred to a 48-well microplate (TPP cell culture microplates purchased from Thermo Fisher Scientific, France) (40,000 cells in 80 μL/well). Gem (20 μL, final concentration 0.1 μM) or PBS (20 μL) and cis-GdAzo compound (100 μL, final concentration 0 μM, 250 μM, 500 μM or 850 μM) were added just prior to gamma irradiation of the medium (2 Gy). The medium was maintained in the dark and in a humid atmosphere at 37° C. with 5% CO2 for 1 h. Next, culture medium (600 μL) was added to each well and the cells were washed by three centrifugation cycles (300 G, 5 min, 800 μL of culture medium used for each wash). The cells were finally dispersed in culture medium (600 μL) containing or not containing Gem (final concentration 0 μM or 0.1 μM) and were maintained in a humid atmosphere at 37° C. with 5% CO2 for 4 days. The number of live cells was determined by cell count in the presence of 1:1 (v/v) trypan blue (triplicate). The experiment was repeated three times independently. Cell viability was expressed as the ratio of the number of living cells after treatment to the number of living cells without any treatment (without irradiation, in the absence of Gem and cis-GdAzo). A similar procedure was used for the control experiment without irradiation except that the 48-well microplate was not irradiated with gamma rays. A similar procedure was used for the control experiment with Dotarem® (FIG. 2f) except that Dotarem® was used instead of cis-GdAzo. The cis-GdAzo compound was obtained by UV irradiation (365 nm, 0.817 mW·cm−2, 30 min) of the trans-GdAzo compound (105 μL, 500 μM, 1 mM or 1.7 mM, cis-GdAzo>85%) in a 96-well microplate.

[2] = tested on: Cells (PANC-1); experiment: Confocal microscopy in the presence of ionizing radiation: cell permeabilization (propidium iodide); type: cell-based, human
Protocol: Cells (PANC-1) were transferred to an imaging plate (Lab-Tek chamber slide system, glass, 8-well purchased from Thermo Fisher Scientific, France) 24 h before the start of the experiment, and were maintained in culture medium (10,000 cells in 200 μL/well) in a humid atmosphere at 37° C. with 5% CO2. Just before the experiment, the cell medium was replaced with PBS (100 μL) and IP (5 μL, final concentration 1 μM) was added to the medium. 15 min after the addition of PI, cis-GdAzo (100 μL, final concentration 0 μM, 250 μM, 500 μM or 850 μM) was introduced into the cell medium. A first series of images was acquired at this stage, and then the imaging plate was irradiated (gamma rays, 2 Gy). The imaging plate was then kept in the dark at 37° C. (plate warmer) and images were acquired every 5 min for 30 min and then every 10 min for 90 min. A similar procedure was used for the control experiment without irradiation except that the imaging plate was not irradiated with gamma rays. The cis-GdAzo compound was obtained by UV irradiation (365 nm, 0.817 mW·cm^−2, 30 min) of the trans-GdAzo compound (105 μL, 500 μM, 1 mM or 1.7 mM, cis-GdAzo>85%) in a 96-well microplate. […] The instrument was equipped with a laser diode at 561 nm as excitation wavelength. The red fluorescence emission was collected over a bandwidth of 598-672 nm and the transmission images were obtained with a white diode. The pinhole was set at 50 μm and the magnification lens at 1.2. The images were recorded by an e-Volve s-CMOS camera (Photometrics). Four images were recorded per well and two wells were used for each concentration of cis-GdAzo. Analysis of the 16-bit digital images was performed using ImageJ software (version 1.50i with the Adjustable Watershed plugin). The number of cells in the images acquired before irradiation was determined manually and the number of fluorescent cells in the images acquired before and after irradiation was calculated automatically using a script coded on ImageJ. Cell permeabilization was determined by the difference in the proportion of fluorescent cells before and 30 min after gamma irradiation (3 independent experiments).

[3] = Thermal relaxation of the compound; type: physicochemical
[4] = Quantification of ionizing-radiation-induced isomerization (molecular activation) by HPLC; type: physicochemical
Protocol: Gamma ray irradiation. Gamma irradiation was performed with a Cesium-137 source (IBL 637) providing 662 keV photons at a dose rate of approximately 1 Gy/min. Radiation doses are expressed in Gray ([…]).
Gd-containing compounds (GdAzo or GdFAzo) and control compounds (Azo or FAzo) (50 μM, 200 μL, PBS) were introduced into two 96-well microplates (10 wells for each compound). Both microplates were first irradiated under UV light (365 nm, 0.817 mW·cm^−2, 5 min). One microplate (plate 1) was then kept in the dark and used as a non-irradiated control while the second (plate 2) was irradiated with an increment of ionizing radiation doses (2 Gy, 3 Gy, 5 Gy and 10 Gy). After each irradiation, absorbance spectrophotometric and HPLC injection (method C) analyses were performed on the non-irradiated (plate 1) and irradiated (plate 2) compounds. A 26 min time lag between UV irradiation of plates 1 and 2 was used to allow analysis of the unirradiated control compounds (plate 1) at the same time as the ionizing irradiated compounds (plate 2) after UV irradiation. […] The absorbance spectra were plotted by the mean of triplicates. The relative amount of each isomer was obtained by HPLC (detection at the isosbestic point wavelength under elution conditions) and the molecular activation (%) was determined by the difference in the proportion of trans isomer in the medium (3 independent experiments).

Gadolinium 4-(N-(1,4,7,10-tetraazacyclododecane-1,4,7-triacetic acid-10-glutaryl)-ethoxyamine)-4′-butoxyazobenzene [GdAzo]
cell viability 4 days after treatment ([1]; 250 μM, absence of gemcitabine, gamma radiation at 2 Gy): 23%
cell viability 4 days after treatment ([1]; 250 μM, absence of gemcitabine, without irradiation): 79%
cell viability 4 days after treatment ([1]; 250 μM, presence of gemcitabine (0.1 μM), gamma radiation at 2 Gy): 15%
cell viability 4 days after treatment ([1]; 250 μM, presence of gemcitabine (0.1 μM), without irradiation): 49%
cell viability 4 days after treatment ([1]; 500 μM, absence of gemcitabine, gamma radiation at 2 Gy): 18%
cell viability 4 days after treatment ([1]; 500 μM, absence of gemcitabine, without irradiation): 42%
cell viability 4 days after treatment ([1]; 500 μM, presence of gemcitabine (0.1 μM), gamma radiation at 2 Gy): 9.1%
cell viability 4 days after treatment ([1]; 500 μM, presence of gemcitabine (0.1 μM), without irradiation): 30%
cell viability 4 days after treatment ([1]; 850 μM, absence of gemcitabine, gamma radiation at 2 Gy): 3.0%
cell viability 4 days after treatment ([1]; 850 μM, absence of gemcitabine, without irradiation): 27%
cell viability 4 days after treatment ([1]; 850 μM, presence of gemcitabine (0.1 μM), gamma radiation at 2 Gy): 1.2%
cell viability 4 days after treatment ([1]; 850 μM, presence of gemcitabine (0.1 μM), without irradiation): 16%
cell permeabilization ([2]; 250 μM, gamma rays at 2 Gy, 30 min after irradiation): 6.9%
cell permeabilization ([2]; 250 μM, without irradiation): 1.2%
cell permeabilization ([2]; 500 μM, gamma rays at 2 Gy, 30 min after irradiation): 8.2%
cell permeabilization ([2]; 500 μM, without irradiation): 2.8%
cell permeabilization ([2]; 850 μM, gamma rays at 2 Gy, 30 min after irradiation): 12.4%
cell permeabilization ([2]; 850 μM, without irradiation): 7.5%

Gadolinium 2,6-difluoro-4-(N-(1,4,7,10-tetraazacyclododecane-1,4,7-triacetic acid-10-glutaryl)-ethoxyamine)-2′,6′-difluoro-4′-butoxyazobenzene [GdFAzo]
thermal relaxation [3]: slow enough
activation of the compound compared to GdAzo ([4]; in vitro experimental conditions, FIG. 1c): relatively low
activation by ionizing radiation ([4]; ionizing radiation (X-rays, gamma rays, electrons), FIGS. 1a-f): can also be activated

CNC[C@H](O)[C@@H](O)[C@H](O)[C@H](O)CO.O=C([O-])CN1CCN(CC(=O)[O-])CCN(CC(=O)O)CCN(CC(=O)[O-])CC1.[Gd+3] [Dotarem®, reference compound]
therapeutic effect under ionizing radiation ([1]; gamma irradiation (2 Gy), with or without Gem (0.1 μM), FIG. 2f): no therapeutic effect

Source: patent US12414991B2, “Azobenzene derivatives, process for their preparation and their use for therapeutic treatment associated with ionizing radiations” (CENTRE NATIONAL DE LA RECHERCHE SCIENTIFIQUE, priority 2019, dated 2025)
